Series [1] deals with bronchioles (bronchial resistance). Briefly: Guinea-pig multiparameter test: bronchial resistance. The conditions noted are these: anaesthetized guinea-pig. Format: in vivo. The procedure:
(§1) The selective activity of the hydroxy-prostaglandin derivatives of the present invention was established by a multiparameter guinea-pig test. In this test guinea-pigs weighing 600-900 g are anaesthetized with sodium pentobarbitone (45 mg/kg, i.p.). Supplementary doses of sodium pentobarbitone (3-6 mg i.v.) are administered when required (i.e. when spontaneous respiration appears). The jugular vein is cannulated for the administration of drugs. The guinea-pig is artificially respired with N2 O/O2 (7/3), using a Keuskamp respirator.
(§2) Then the following functions are measured:
b. Bronchial resistance and tracheal segment pressure.
A cannula is inserted into the trachea as close as possible to the thorax. The guinea-pig is artificially ventilated at 55 strokes/min. The pressure changes, assumed to be due to changes caused by the bronchioles, are measured by a pressure transducer attached to a side arm of the cannula. The trachea is occluded at its lower end with a blind-ended cannula, while a cannula is further introduced into the trachea as close as possible to the larynx. The system is completely filled with saline, and connected to a very sensitive pressure transducer. Changes in the pressure measured (cm H2 O) are assumed to reflect changes in the tone of the smooth muscle of the trachea. The trachea segment cannula is inserted with extreme caution so as to avoid disruption of the nerve or blood supply to the segment.

The subject of series [2] is duodenum (intestinal motility). Briefly: Guinea-pig multiparameter test: intestinal contractions. The series is classed as in vivo. The conditions noted are these: anaesthetized guinea-pig. The procedure: as §1, §2
c. Measurement of intestinal motility.
A balloon, containing distilled water and connected to a pressure transducer, is inserted in the duodenum of the guinea-pig. Care is taken on ligaturing the cannula to avoid stricture of the duodenum. The balloon is at a pressure of 10-20 mm Hg.

Series [3] relates to uterus (uterine motility). Briefly: Guinea-pig multiparameter test: uterine contractions. The series is classed as in vivo. As to conditions: anaesthetized guinea-pig. The procedure:
as §1, §2
d. Measurement of uterine motility.
A polyethylene cannula is inserted into the uterus via the vagina to a depth of 2.5 cm. This is then tied off with a ligature around the cervix. The cannula is connected to a pressure transducer, the whole system being filled with liquid paraffin at a pressure of 10-20 mm Hg.

Series [4] deals with Histamine-induced broncho-constriction. The series can be described thus: Antagonism of histamine-induced broncho-constriction (guinea-pig). Format: in vivo. The conditions noted are these: Cavia porcellus, iv, read-out: % INHIBITION (± S.D.) of histamine-induced broncho-constriction. The procedure:
The activity of the 18.xi.-, 19.xi.- and 20.xi.-hydroxy-prostaglandin derivatives on the respiratory tract misculature was further confirmed by determination of their ability to antagonize histamine-induced bronchoconstriction. This test is a modification of the guinea-pig multiparameter test, cannulations being carried out only for recording blood pressure, tracheal segment pressure and bronchial resistance.
Histamine was injected i.v. in a dose of 4 μg (as base) at regular intervals throughout the experiment. If extra doses of sodium pentobarbitone had to be administered during the course of the experiment to suppress voluntary respiration, the interval to the next dose of histamine was lengthened.
Test compounds were injected i.v. one minute before histamine in volumes less than 0.5 ml. The substances were washed in with 0.3 ml sterile saline. The lungs were artificially over-ventilated one minute prior to injection of the test compounds.
The ability of the compounds to counteract histamine-induced bronchoconstriction and the increase in tracheal segment pressure was determined using two dose levels--a low one and a high one.

The test system of series [5] is rabbit eye. Briefly: Irritation following topical application in the rabbit eye (Draize scoring method). Format: in vivo. An excerpt:
This effect can be studied using the Draize scoring method for determining irritation following topical application in the rabbit eye.

The conditions of series [6]: cited from earlier work.

SMILES strings stand for the structures. Like-named read-outs stand apart in the source and are kept apart here.

As to `CCC(O)CC[C@H](O)/C=C/[C@H]1CCC(=O)[C@@H]1CCCCCCC(=O)O` (relative stereo) [9-keto-15α,18.xi.-dihydroxy-prost-13(t)-enoic acid], the BRONCHIAL resistance in series [1] (dose 100 μg) is recorded as 0. Further, the INTESTINAL contractions in series [2] (dose 100 μg) is reported as 0. The UTERINE contractions in series [3] (dose 100 μg) turned out to be 0. Further, in series [4], the inhibition in vivo at 0.001 mg came out at 25.9% and the inhibition in vivo at 0.1 mg is around 80%.
Turning to `CC(O)CCC[C@H](O)/C=C/[C@H]1CCC(=O)[C@@H]1CCCCCCC(=O)O` (relative stereo) [9-keto-15α,19.xi.-dihydroxy-prost-13(t)-enoic acid], the BRONCHIAL resistance in series [1] (dose 100 μg) was 0. This compound came in with an INTESTINAL contractions in series [2] (dose 100 μg) of 0. For the same compound, the UTERINE contractions in series [3] (dose 100 μg) is recorded as 0. Moreover, in series [4], the inhibition in vivo at 0.001 mg was determined as 23.9% and the inhibition in vivo at 0.1 mg is 88.1%.
Turning to `CC(O)CCC[C@@H](O)/C=C/[C@H]1CCC(=O)[C@@H]1CCCCCCC(=O)O` (relative stereo) [9-keto-15β,19.xi.-dihydroxy-prost-13(t)-enoic acid], the inhibition in vivo at 0.5 mg in series [4] is around 85%.
Still for that read-out and setting: the figure for `CC(O)CCC[C@@H](O)/C=C/[C@H]1CC[C@H](O)[C@@H]1CCCCCCC(=O)O` (relative stereo) [9α,15β,19.xi.-trihydroxy-prost-13-(t)-enoic acid] is around 60%.
Compound `CCC(O)CC[C@H](O)/C=C/[C@H]1CC[C@@H](O)[C@@H]1CCCCCCC(=O)O` (relative stereo) [9β,15α,18.xi.-trihydroxy-prost-13(t)-enoic acid] returned a BRONCHIAL resistance in series [1] (dose 500 μg) of 0. The compound further came in with an INTESTINAL contractions in series [2] (dose 500 μg) of 0. Moreover, the UTERINE contractions in series [3] (dose 500 μg) stood at 0. In addition, the inhibition in vivo at 0.1 mg in series [4] was determined as 28.1%.
In series [1] (dose 500 μg), `CC(O)CCC[C@H](O)/C=C/[C@H]1CC[C@@H](O)[C@@H]1CCCCCCC(=O)O` (relative stereo) [9β,15α,19.xi.-trihydroxy-prost-13(t)-enoic acid] yielded a BRONCHIAL resistance of 0. In addition, the INTESTINAL contractions in series [2] (dose 500 μg) amounted to 0. In series [3] (dose 500 μg), this compound yielded a UTERINE contractions of 0. For the same compound, the inhibition in vivo at 0.1 mg in series [4] turned out to be 62.5%.
In turn, `O=C(O)CCCCCC[C@H]1[C@H](O)CC[C@@H]1/C=C/[C@@H](O)CCCCCO` (relative stereo) [9β,15α,20-trihydroxy-prost-13(t)-enoic acid] registered a BRONCHIAL resistance in series [1] (dose 500 μg) of 0. Further, the INTESTINAL contractions in series [2] (dose 500 μg) is 0. The same compound had a UTERINE contractions in series [3] (dose 500 μg) of 0. Moreover, the inhibition in vivo at 0.1 mg in series [4] came to 52.9%.
`CCC(O)CC[C@H](O)/C=C/[C@H]1[C@H](O)CC(=O)[C@@H]1CCCCCCC(=O)O` (stereo partly drawn) [9-keto-11α,15α,18.xi.-trihydroxy-prost-13(t)-enoic acid]: in series [4], the inhibition in vivo at 0.001 mg was around 70%.
Still for that read-out and setting: with `CCC(O)CC[C@H](O)/C=C/[C@H]1[C@H](O)CC(=O)[C@@H]1C/C=C\CCCC(=O)O` (stereo partly drawn) [9-keto-11α,15α,18.xi.-trihydroxy-prosta-5(c),13(t)-dienoic acid] the figure was around 35%; with `CC(O)CCC[C@H](O)/C=C/[C@H]1[C@H](O)CC(=O)[C@@H]1CCCCCCC(=O)O` (stereo partly drawn) [9-keto-11α,15α,19.xi.-trihydroxy-prost-13(t)-enoic acid], around 60%.
On the same count and under the same terms, the figure for `CC(O)CCC[C@H](O)/C=C/[C@H]1[C@H](O)CC(=O)[C@@H]1C/C=C\CCCC(=O)O` (stereo partly drawn) [9-keto-11α,15α,19.xi.-trihydroxy-prosta-5(c),13(t)-dienoic acid] is around 70%.
Same read-out and setting: the figure for `CCC(O)CC[C@H](O)/C=C/[C@H]1CCC(=O)[C@@H]1C/C=C\CCCC(=O)O` (stereo partly drawn) [9-keto-15α,18.xi.-dihydroxy-prosta-5(c),13(t)-dienoic acid] is 45%; for `CC(O)CCC[C@H](O)/C=C/[C@H]1CCC(=O)[C@@H]1C/C=C\CCCC(=O)O` (stereo partly drawn) [9-keto-15α,19.xi.-dihydroxy-prosta-5(c),13(t)-dienoic acid] it is 50.3%; for `O=C(O)CCC/C=C\C[C@H]1C(=O)CC[C@@H]1/C=C/[C@@H](O)CCCCCO` [9-keto-15α,20-dihydroxy-prosta-5(c),13(t)-dienoic acid] it is 60.7%.
In turn, `CCCCC[C@H](O)/C=C/[C@H]1[C@H](O)CC(=O)[C@@H]1CCCCCCC(=O)O` [PGE1, 9-keto-11α,15α-dihydroxy-prost-13(t)-enoic acid, reference compound] returned a BRONCHIAL resistance in series [1] (dose 5 μg) of 0. Also, the UTERINE contractions in series [3] (dose 5 μg) is recorded as 0. Besides, in series [4] (dose 0.1 μg i.v., one minute before histamine 4 μg i.v.), the inhibition in vivo at 0.0001 mg was 27.6%. Also, the inhibition in vivo at 0.001 mg in series [4] (dose 1 μg i.v., one minute before histamine 4 μg i.v.) was 53.2%. Also, the inhibition in vivo at 0.005 mg in series [4] (dose 5.0 μg i.v., one minute before histamine 4 μg i.v.) is around 88%. The compound further yielded a threshold irritant dose in series [5] of 1 μg/eye.
Take `CCCCC[C@H](O)/C=C/[C@H]1[C@H](O)CC(=O)[C@@H]1C/C=C\CCCC(=O)O` [PGE2, 9-keto-11α,15α-dihydroxy-prosta-5(c),13(t)-dienoic acid]: the “persistant coughing on aerosol use” value in series [6] is “persistant coughing”.

The record behind these values is US4190670A, “Prostaglandin derivatives” (priority 1974, dated 1980).
